Measurements published in US20220151983A1, “COMPOUNDS FOR INHIBITING FUCOSYLATION AND METHODS FOR USING THE SAME” (SCORE PHARMA, INC., priority 2019, published 2022).
Counter-ions that a name gives are not always drawn. Like-named read-outs stand apart in the source and are kept apart here.

Legend:
[1] = molecular target: T1, fucosyltransferase (FUT-8) (Homo sapiens, UniProt Q9BYC5); assay: Inhibition of fucosyltransferase (FUT-8) activity, detection of fucosylation of the substrate protein; assay type: biochemical; conditions: for inhibition at 10 µM: read-out: Primary Screen (10 μM), inhibition value
T1 sequence (Q9BYC5 1-575): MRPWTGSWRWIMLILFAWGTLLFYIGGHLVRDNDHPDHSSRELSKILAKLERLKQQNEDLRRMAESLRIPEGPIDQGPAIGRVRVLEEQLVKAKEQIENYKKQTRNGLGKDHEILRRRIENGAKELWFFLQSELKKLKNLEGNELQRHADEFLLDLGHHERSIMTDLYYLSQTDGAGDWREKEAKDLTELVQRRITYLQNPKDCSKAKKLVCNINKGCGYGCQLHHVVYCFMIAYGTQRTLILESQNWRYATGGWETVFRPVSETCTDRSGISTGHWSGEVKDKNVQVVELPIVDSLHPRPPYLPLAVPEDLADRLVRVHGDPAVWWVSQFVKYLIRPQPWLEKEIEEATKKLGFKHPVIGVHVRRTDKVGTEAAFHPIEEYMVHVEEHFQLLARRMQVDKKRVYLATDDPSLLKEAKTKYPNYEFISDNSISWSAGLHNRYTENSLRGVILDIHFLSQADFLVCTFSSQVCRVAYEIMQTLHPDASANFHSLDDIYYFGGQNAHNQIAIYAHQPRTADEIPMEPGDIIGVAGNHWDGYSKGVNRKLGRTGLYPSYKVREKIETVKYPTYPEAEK
Experimental: Briefly, a compound was combined with fucosyltransferase (FUT-8) and appropriate substrates and incubated for 1 hour. The reaction was terminated, and a detection reagent mixture was added to detect the amount of fucosylation of the substrate protein.

[2] = test system: CHO cells producing an anti-IL8 IgG monoclonal antibody (ATCC CRL-12445); assay: Reduction of fucosylation of anti-IL8 mAb produced by CHO cells, LC-MS analysis; assay type: cell-based
Description: Briefly, Epicatechin Monogallate (ECG), Epicatechin-3-Monogallate (ECGC) and Aurin Tricarboxylic Acid (ATA) were included in the cell culture media and added to CHO cells producing an anti-IL8 IgG monoclonal antibody (mAb) obtained from [NT] CRL-12445), which is also described in U.S. Pat. No. 6,025,158, which is hereby incorporated by reference in its entirety. After a specified period of time the cells were harvested and the anti-IL8 mAb purified by standard methods. Purified anit-IL8 mAbs were then reduced by the addition of dithiothreitol and subjected to LC-MS analysis to determine the level of fucosylation. The decrease in the level of anti-IL8 fucosylation are depicted in FIG. 20 AND FIG. 21.

[3] = 10 μM compound, incubated for 1 hour
[4] = incubated for 1 hour, read-out: IC50 Value

inhibition at 10 µM [1, 3] [%]	IC50 [1, 4] [µM]	Compound	other results
30	> 10	O=c1c(O)cccc2cc(O)c(O)c(O)c12 [Purpurogallin]	–
93	< 10	O=C(OC[C@H]1O[C@@H](OC(=O)c2cc(O)c(O)c(OC(=O)c3cc(O)c(O)c(O)c3)c2)[C@H](OC(=O)c2cc(O)c(O)c(OC(=O)c3cc(O)c(O)c(O)c3)c2)[C@@H](OC(=O)c2cc(O)c(O)c(OC(=O)c3cc(O)c(O)c(O)c3)c2)[C@@H]1OC(=O)c1cc(O)c(O)c(OC(=O)c2cc(O)c(O)c(O)c2)c1)c1cc(O)c(O)c(OC(=O)c2cc(O)c(O)c(O)c2)c1 [Tannic Acid]	–
34	> 10	O=C(O)C1=CC(=C(c2ccc(O)c(C(=O)O)c2)c2ccc(O)c(C(=O)O)c2)C=CC1=O [Aurin Tricarboxylic Acid]	change of fucosylation level ([2]; either concentration tested (data not shown)): did not alter the fucosylation level
47	> 10	C[n+]1c2cc(N)ccc2cc2ccc(N)cc21 [Acriflavinium]	–
25	> 10	O=C(O[C@@H]1Cc2c(O)cc(O)cc2O[C@@H]1c1ccc(O)c(O)c1)c1cc(O)c(O)c(O)c1 [Epicatechin Monogallate]	reduction in fucosylation ([2]; 10-fold lower concentration than 100 μM): 13%; core fucosylated species, with concomitant rise in the afucosylated species ([2]; dose dependence): dose dependent decrease; reduction in fucosylation ([2]; maximum concentration (100 μM) in cell culture media): 25%
30	> 10	O=c1cc(-c2ccccc2)oc2cccc(O)c12 [Primuletin]	–
35	–	COc1ccc(-c2cc(=O)c3c(O)cc(O)cc3o2)cc1O [Diometin]	–
70	< 10	Cc1ccc(C(=O)Nc2ccc(S(=O)(=O)O)c3cc(S(=O)(=O)O)cc(S(=O)(=O)O)c23)cc1NC(=O)c1cccc(NC(=O)Nc2cccc(C(=O)Nc3cc(C(=O)Nc4ccc(S(=O)(=O)O)c5cc(S(=O)(=O)O)cc(S(=O)(=O)O)c45)ccc3C)c2)c1 [Suramin, reference compound]	–
30	> 10	O=c1cc(-c2ccccc2)oc2cc(O)cc(O)c12 [Chrysin]	–
88	< 10	O=C(O[C@@H]1Cc2c(O)cc(O)cc2O[C@@H]1c1cc(O)c(=O)c2c(O)c(O)cc([C@H]3Oc4cc(O)cc(O)c4C[C@H]3O)c2c1)c1cc(O)c(O)c(O)c1 [Theaflavin Monogallate]	–
26	> 10	CCOc1ccc2nc3cc(N)ccc3c(N)c2c1 [Ethcridine Lactate, Etheridine Lactate]	–
28	> 10	O=C1c2c(O)cccc2Cc2cccc(O)c21 [Anthralin, reference compound]	–
–	< 10	C=C1c2cccc(O)c2C(=O)C2=C(O)[C@]3(O)C(=O)C(C(N)=O)=C(O)[C@@H](N(C)C)[C@@H]3[C@@H](O)[C@H]12 [Methacycline, reference compound]	Primary Screen (10 μM), inhibition value [1, 3]: 82%
–	–	Oc1c(Cl)cc(Cl)c(Cl)c1Cc1c(O)c(Cl)cc(Cl)c1Cl [Hexachlorophene, reference compound]	IC50 [1]: > 10 µM; inhibition at 10 µM [1]: 40%
29	–	O=c1cc(-c2ccccc2)oc2cc(O)c(O)c(O)c12 [Baicalein]	–
27	> 10	CCN(CC)CCNc1ccc(CO)c2sc3ccccc3c(=O)c12 [Hycanthone, reference compound]	–
–	–	Cc1cc2c(C(C)C)c(O)c(O)c(C=O)c2c(O)c1-c1c(C)cc2c(C(C)C)c(O)c(O)c(C=O)c2c1O [Gossypol]	IC50 [1]: > 10 µM; inhibition at 10 µM [1]: 26%
82	< 10	O=C1C=C2CC3(O)COc4c(ccc(O)c4O)C3=C2C=C1O (centres unmarked)	–
39	> 10	O=C(O[C@@H]1Cc2c(O)cc(O)cc2O[C@@H]1c1cc(O)c(O)c(O)c1)c1cc(O)c(O)c(O)c1	reduction in fucosylation ([2]; 10 μM in cell culture media): 6%

Compound	inhibition at 10 µM [1, 3] [%]	IC50 [1, 4] [µM]	other results
N.N.[Cl][Pt][Cl] [Cisplatin, reference compound]	–	> 10	Primary Screen (10 μM), inhibition value [1, 3]: 60%
O=C1c2c(O)ccc(O)c2C(=O)c2c(NCCNCCO)ccc(NCCNCCO)c21 [Mitoxanthrone Hydrocloride, Mitoxanthrone Hydrochloride, reference compound]	49	> 10	–
Carboplatin [reference compound]	–	> 10	Primary Screen (10 μM), inhibition value [1, 3]: 45%
